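48-hour exposure; five concentrations; linearly interpolated endpoints. GI50: concentration for 50% inhibition of growth. TGI denotes the concentration required for complete inhibition of growth.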
Key:
Experiment in all cases: DTP human tumour cell line panel, 48 h
CCRF-CEM leukemia = tested on: CCRF-CEM leukemia
HL-60(TB) leukemia = tested on: HL-60(TB) leukemia
HOP-62 NSCLC = tested on: HOP-62 NSCLC
HT29 colon = tested on: HT29 colon
MCF7 breast = tested on: MCF7 breast
MOLT-4 leukemia = tested on: MOLT-4 leukemia
NCI-H226 lung = tested on: NCI-H226 lung
OVCAR-5 ovarian = tested on: OVCAR-5 ovarian
SW-620 colon = tested on: SW-620 colon
T-47D breast = tested on: T-47D breast

Row | Structure (SMILES) | GI50 (CCRF-CEM leukemia) [µM] | TGI (CCRF-CEM leukemia) [µM] | GI50 (HL-60(TB) leukemia) [µM] | TGI (HL-60(TB) leukemia) [µM] | GI50 (HOP-62 NSCLC) [µM] | TGI (HOP-62 NSCLC) [µM] | GI50 (HT29 colon) [µM] | TGI (HT29 colon) [µM] | GI50 (MCF7 breast) [µM] | TGI (MCF7 breast) [µM] | GI50 (MOLT-4 leukemia) [µM] | TGI (MOLT-4 leukemia) [µM] | GI50 (NCI-H226 lung) [µM] | TGI (NCI-H226 lung) [µM] | GI50 (OVCAR-5 ovarian) [µM] | TGI (OVCAR-5 ovarian) [µM] | GI50 (SW-620 colon) [µM] | TGI (SW-620 colon) [µM] | GI50 (T-47D breast) [µM] | TGI (T-47D breast) [µM]
1 | COc1ccc(C(O)c2cc3c(N)c(C(=O)Nc4cccc(Br)c4C)sc3nc2C)cc1 (stereo not given) | 0.139 | > 33.3 | 0.104 | 2.34 | 0.287 | > 30.2 | 0.12 | 5.77 | 0.116 | > 33.3 | 0.177 | > 33.3 | 0.989 | 17.9 | 0.666 | > 25.6 | 0.124 | > 33.3 | 0.346 | > 33.3
2 | CNC(=O)OCc1nc(SC)n(C)c1COC(=O)NC |  | 494 |  | 262 |  | 92.2 |  | 605 |  | 622 |  | 142 |  | 400 |  | 451 |  | 685 |  | 554
3 | CCCCCC[C@H]1C(=O)O[C@H](C)[C@H](NC(=O)c2cccc(NC=O)c2OC)C(=O)O[C@@H](C)[C@@H]1OC(=O)CCC (tested in a mixture with another compound) | 3.81 | 27.2 | 4.68 | 19.9 | 16.9 | 40.1 | 5.98 | 45.6 | 33.4 | > 100 | 5.64 | 26.6 | 14.7 | 39.4 | 20.9 | 47.6 | 13 | 72.3 | 11.2 | 35.5
4 | CCOc1ccc2cc(-c3nn(CC4CCNCC4)c4ncnc(N)c34)ccc2c1 | 13.9 | 34.2 | 14.7 | 32.6 | 16.3 | 39.4 | 10.9 | 32 | 11.2 | 24.8 | 4.73 | 19.8 | 10 | 33.4 | 14.9 | 34.5 | 15.2 | 31.4 | 18.2 | 50.5
5 | Nc1ncc2ncn(C3CCC(CO)O3)c2n1 (stereo not given) |  | > 100 |  | > 100 |  | > 100 |  | > 100 |  | > 100 |  | > 100 |  | > 100 |  | > 100 |  | > 100 |  | > 100
6 | CC1OC(OC2C(O)C(O)C(O)C(O)C2O)C(N)CC1N=C(N)C(=O)O (stereo not given) |  | > 100 |  | > 100 |  | > 100 |  | > 100 |  | > 100 |  | > 100 |  | > 100 |  | > 100 |  | > 100 |  | > 100
7 | Cc1cc(S(N)(=O)=O)c(S/C(=N\NS(=O)(=O)c2ccccc2)c2ccc(Cl)cc2)cc1Cl | 99.7 | > 100 | 50.6 | > 100 | > 100 | > 100 | > 100 | > 100 | 75.3 | > 100 | 34.4 | > 100 | > 100 | > 100 | > 100 | > 100 | > 100 | > 100 | > 100 | > 100
8 | COc1cc(N(C)C)c(OC)cc1C=C1C=CC=C1 |  | > 100 |  | > 100 |  | > 100 |  | > 100 |  | > 100 |  | > 100 |  | > 100 |  | > 100 |  | > 100 |  | > 100

From PubChem BioAssay (NCI)
